In publication PMC4051630, “A Comparison of Protein Kinases Inhibitor Screening Methods Using Both Enzymatic Activity and Binding Affinity Determination” (PLoS ONE, 2014):

Key:
Experiment in all cases: Differential Scanning Fluorimetry (DSF) Tm shift
Format in all cases: binding
[1] = target: T1, STK3 Catalytic domain+SARAH (Homo sapiens, UniProt Q13188); conditions: 2 µM protein, 10 µM inhibitor, average of 3 experiments, each in duplicate
T1 construct: for 8, we also made a longer version containing one or more additional domains; His-tag; made in house; host or cells: Escherichia coli
T1 sequence (Q13188 1-491): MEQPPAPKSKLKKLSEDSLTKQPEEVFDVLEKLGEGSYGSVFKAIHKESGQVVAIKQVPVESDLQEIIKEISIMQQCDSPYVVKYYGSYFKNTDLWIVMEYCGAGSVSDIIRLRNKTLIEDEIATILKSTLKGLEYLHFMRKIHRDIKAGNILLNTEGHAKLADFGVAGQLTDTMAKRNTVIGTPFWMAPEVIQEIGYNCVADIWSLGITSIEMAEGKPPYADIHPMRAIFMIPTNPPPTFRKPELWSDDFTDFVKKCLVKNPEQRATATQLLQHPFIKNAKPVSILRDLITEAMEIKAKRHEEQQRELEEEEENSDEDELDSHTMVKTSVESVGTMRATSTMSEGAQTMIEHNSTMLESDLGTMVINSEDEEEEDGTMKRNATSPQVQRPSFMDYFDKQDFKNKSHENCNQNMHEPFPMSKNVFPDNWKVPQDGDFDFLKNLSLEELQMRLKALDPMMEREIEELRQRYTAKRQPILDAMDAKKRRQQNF

CDK2 + Cyclin A = target: T2, CDK2 + Cyclin A (Homo sapiens, UniProt P24941); conditions: CDK2 + Cyclin A; 2 µM protein, 10 µM inhibitor; average of 3 experiments, each in duplicate
T2 construct: CDK2 (P24941); 1–299; His-tag; made in house; host or cells: Escherichia coli

FES Catalytic Domain+SH2 = target: T3, FES Catalytic Domain+SH2 (Homo sapiens, UniProt P07332); conditions: 2 µM protein, 10 µM inhibitor, average of 3 experiments, each in duplicate
T3 construct: for 8, we also made a longer version containing one or more additional domains; His-tag; made in house; host or cells: Escherichia coli

FAK2 Catalytic Domain = target: T4, FAK2 Catalytic Domain (Homo sapiens, UniProt Q14289); conditions: 2 µM protein, 10 µM inhibitor, average of 3 experiments, each in duplicate
T4 construct: For all of them, we expressed and purified the catalytic domain separately; His-tag; made in house; host or cells: Escherichia coli

CDK2 + Cyclin E = target: T5, CDK2 + Cyclin E (Homo sapiens, UniProt P24941); conditions: CDK2 + Cyclin E; 2 µM protein, 10 µM inhibitor; average of 3 experiments, each in duplicate
T5 construct: CDK2 (P24941); 1–299; His-tag; made in house; host or cells: Escherichia coli

FES Catalytic Domain = target: T6, FES Catalytic Domain (Homo sapiens, UniProt P07332); conditions: 2 µM protein, 10 µM inhibitor, average of 3 experiments, each in duplicate
T6 construct: For all of them, we expressed and purified the catalytic domain separately; His-tag; made in house; host or cells: Escherichia coli

CHK2 Catalytic Domain = target: T7, CHK2 Catalytic Domain (Homo sapiens, UniProt O96017); conditions: 2 µM protein, 10 µM inhibitor, average of 3 experiments, each in duplicate
T7 construct: For all of them, we expressed and purified the catalytic domain separately; His-tag; made in house; host or cells: Escherichia coli

[2] = target: SRC Catalytic Domain+SH2+SH3 (Homo sapiens, UniProt P12931); conditions: 2 µM protein, 10 µM inhibitor, average of 3 experiments, each in duplicate
SRC Catalytic Domain = SRC Catalytic Domain (Homo sapiens, UniProt P12931); set-up: For all of them, we expressed and purified the catalytic domain separately; His-tag; made in house; host or cells: Escherichia coli; conditions: 2 µM protein, 10 µM inhibitor, average of 3 experiments, each in duplicate
PAK4 Catalytic Domain = target: T8, PAK4 Catalytic Domain (Homo sapiens, UniProt O96013); conditions: 2 µM protein, 10 µM inhibitor, average of 3 experiments, each in duplicate
T8 construct: For all of them, we expressed and purified the catalytic domain separately; His-tag; made in house; host or cells: Escherichia coli

DMPK Catalytic Domain = target: T9, DMPK Catalytic Domain (Homo sapiens, UniProt Q09013); conditions: 2 µM protein, 10 µM inhibitor, average of 3 experiments, each in duplicate
T9 construct: For all of them, we expressed and purified the catalytic domain separately; His-tag; made in house; host or cells: Escherichia coli
T9 sequence (Q09013 71-339 limits assumed): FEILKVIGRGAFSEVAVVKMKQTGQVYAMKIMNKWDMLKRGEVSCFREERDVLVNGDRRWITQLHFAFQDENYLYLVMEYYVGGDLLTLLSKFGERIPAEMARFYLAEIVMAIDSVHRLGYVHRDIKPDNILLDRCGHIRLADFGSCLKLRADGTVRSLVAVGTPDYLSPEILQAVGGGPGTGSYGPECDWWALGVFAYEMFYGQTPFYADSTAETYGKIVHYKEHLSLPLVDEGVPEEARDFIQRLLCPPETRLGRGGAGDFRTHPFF

PAK7 Catalytic Domain = target: T10, PAK7 Catalytic Domain (Homo sapiens, UniProt Q9P286); conditions: 2 µM protein, 10 µM inhibitor, average of 3 experiments, each in duplicate
T10 construct: For all of them, we expressed and purified the catalytic domain separately; His-tag; made in house; host or cells: Escherichia coli

[3] = target: T11, PAK4 Catalytic Domain+PBD (Homo sapiens, UniProt O96013); conditions: 2 µM protein, 10 µM inhibitor, average of 3 experiments, each in duplicate
T11 construct: for 8, we also made a longer version containing one or more additional domains; His-tag; made in house; host or cells: Escherichia coli

AKT3 Catalytic Domain = target: T12, AKT3 Catalytic Domain (Homo sapiens, UniProt Q9Y243); conditions: 2 µM protein, 10 µM inhibitor, average of 3 experiments, each in duplicate
T12 construct: AKT3 (Q9Y243); CD; His-tag; made in house; host or cells: Escherichia coli

STK3 Catalytic Domain = target: T13, STK3 Catalytic Domain (Homo sapiens, UniProt Q13188); conditions: 2 µM protein, 10 µM inhibitor, average of 3 experiments, each in duplicate
T13 construct: For all of them, we expressed and purified the catalytic domain separately; His-tag; made in house; host or cells: Escherichia coli
T13 sequence (Q13188 27-278 limits assumed): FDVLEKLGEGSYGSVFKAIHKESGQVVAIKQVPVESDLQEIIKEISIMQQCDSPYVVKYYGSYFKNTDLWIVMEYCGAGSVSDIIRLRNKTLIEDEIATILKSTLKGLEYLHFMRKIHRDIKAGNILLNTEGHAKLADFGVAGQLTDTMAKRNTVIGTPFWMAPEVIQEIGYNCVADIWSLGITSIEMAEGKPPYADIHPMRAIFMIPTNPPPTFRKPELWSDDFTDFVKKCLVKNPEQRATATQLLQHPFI

T12 sequence (Q9Y243 122-479): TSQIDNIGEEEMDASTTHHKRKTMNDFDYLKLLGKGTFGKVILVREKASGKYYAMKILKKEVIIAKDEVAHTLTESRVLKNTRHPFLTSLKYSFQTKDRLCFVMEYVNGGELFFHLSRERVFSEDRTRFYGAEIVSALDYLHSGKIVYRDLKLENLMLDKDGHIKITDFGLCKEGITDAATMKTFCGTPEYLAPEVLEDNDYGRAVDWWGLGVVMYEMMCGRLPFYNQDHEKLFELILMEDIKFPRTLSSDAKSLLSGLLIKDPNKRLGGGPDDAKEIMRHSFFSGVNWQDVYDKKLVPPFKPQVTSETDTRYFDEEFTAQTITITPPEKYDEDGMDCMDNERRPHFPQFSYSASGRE
T3 sequence (P07332 448-822 limits assumed): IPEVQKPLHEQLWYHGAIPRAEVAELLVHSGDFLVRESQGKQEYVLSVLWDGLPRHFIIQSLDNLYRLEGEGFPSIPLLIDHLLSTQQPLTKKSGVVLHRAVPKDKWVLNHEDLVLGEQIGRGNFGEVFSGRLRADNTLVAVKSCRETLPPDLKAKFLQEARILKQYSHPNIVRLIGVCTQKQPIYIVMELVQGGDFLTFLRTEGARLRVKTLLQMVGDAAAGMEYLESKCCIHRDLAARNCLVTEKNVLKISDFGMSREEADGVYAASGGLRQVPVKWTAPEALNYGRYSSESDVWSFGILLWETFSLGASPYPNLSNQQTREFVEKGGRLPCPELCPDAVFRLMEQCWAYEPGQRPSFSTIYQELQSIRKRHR
T6 sequence (P07332 561-822 limits assumed): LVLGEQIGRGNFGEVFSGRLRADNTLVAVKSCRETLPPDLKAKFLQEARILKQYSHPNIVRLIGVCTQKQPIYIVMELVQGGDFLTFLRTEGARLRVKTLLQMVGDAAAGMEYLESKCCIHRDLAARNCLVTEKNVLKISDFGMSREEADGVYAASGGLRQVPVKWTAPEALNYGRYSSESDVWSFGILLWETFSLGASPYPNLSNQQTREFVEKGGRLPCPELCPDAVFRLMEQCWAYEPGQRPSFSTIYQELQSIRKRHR
T11 sequence (O96013 whole entry, the tested form may be a part): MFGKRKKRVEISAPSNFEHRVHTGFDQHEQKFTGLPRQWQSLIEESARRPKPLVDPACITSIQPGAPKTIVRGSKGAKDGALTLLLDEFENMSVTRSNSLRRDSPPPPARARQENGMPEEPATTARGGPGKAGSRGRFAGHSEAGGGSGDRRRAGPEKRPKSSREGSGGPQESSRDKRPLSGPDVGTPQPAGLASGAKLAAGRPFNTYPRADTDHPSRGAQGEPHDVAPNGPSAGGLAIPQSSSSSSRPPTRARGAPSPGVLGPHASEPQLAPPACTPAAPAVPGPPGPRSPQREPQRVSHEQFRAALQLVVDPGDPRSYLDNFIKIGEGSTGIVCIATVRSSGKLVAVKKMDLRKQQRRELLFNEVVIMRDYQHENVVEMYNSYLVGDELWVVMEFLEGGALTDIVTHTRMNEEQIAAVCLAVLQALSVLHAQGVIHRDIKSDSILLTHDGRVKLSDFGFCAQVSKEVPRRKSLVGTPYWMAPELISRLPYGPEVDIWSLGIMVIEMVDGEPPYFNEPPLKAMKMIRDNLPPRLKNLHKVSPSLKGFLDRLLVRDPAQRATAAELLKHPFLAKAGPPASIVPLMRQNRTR
T7 sequence (O96017 220-486 limits assumed): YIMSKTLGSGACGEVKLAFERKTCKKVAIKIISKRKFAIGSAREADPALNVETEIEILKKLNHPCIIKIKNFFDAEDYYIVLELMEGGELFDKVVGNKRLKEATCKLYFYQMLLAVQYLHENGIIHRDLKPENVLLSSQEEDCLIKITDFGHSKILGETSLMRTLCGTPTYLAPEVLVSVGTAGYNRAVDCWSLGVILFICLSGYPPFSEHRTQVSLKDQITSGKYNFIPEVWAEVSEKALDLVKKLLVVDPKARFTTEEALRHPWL
T10 sequence (Q9P286 449-700 limits assumed): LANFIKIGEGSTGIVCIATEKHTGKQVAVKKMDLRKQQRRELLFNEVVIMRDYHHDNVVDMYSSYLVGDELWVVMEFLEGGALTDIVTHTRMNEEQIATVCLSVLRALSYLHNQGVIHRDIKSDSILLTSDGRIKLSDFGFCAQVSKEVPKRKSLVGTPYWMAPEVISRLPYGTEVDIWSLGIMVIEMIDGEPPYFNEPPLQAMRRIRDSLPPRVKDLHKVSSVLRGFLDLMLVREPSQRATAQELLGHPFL
T4 sequence (Q14289 425-683 limits assumed): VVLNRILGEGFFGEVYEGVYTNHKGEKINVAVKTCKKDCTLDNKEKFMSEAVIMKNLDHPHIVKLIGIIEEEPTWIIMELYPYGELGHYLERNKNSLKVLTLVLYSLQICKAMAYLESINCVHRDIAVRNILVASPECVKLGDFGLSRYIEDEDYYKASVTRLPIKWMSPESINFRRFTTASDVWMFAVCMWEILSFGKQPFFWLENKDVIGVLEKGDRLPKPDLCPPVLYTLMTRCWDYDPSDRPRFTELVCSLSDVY
T8 sequence (O96013 321-572 limits assumed): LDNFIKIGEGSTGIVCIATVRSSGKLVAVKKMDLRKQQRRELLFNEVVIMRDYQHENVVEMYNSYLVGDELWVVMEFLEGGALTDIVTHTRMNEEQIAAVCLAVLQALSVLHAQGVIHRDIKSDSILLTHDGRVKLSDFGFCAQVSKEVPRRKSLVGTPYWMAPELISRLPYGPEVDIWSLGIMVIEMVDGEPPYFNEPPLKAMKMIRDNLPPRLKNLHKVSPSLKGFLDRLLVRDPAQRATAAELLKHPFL

| Molecule | Melting temperature (Tm) shift [1] [degrees Celcius] | Melting temperature (Tm) shift (CDK2 + Cyclin A) [degrees Celcius] | Melting temperature (Tm) shift (FES Catalytic Domain+SH2) [degrees Celcius] | Melting temperature (Tm) shift (FAK2 Catalytic Domain) [degrees Celcius] | Melting temperature (Tm) shift (CDK2 + Cyclin E) [degrees Celcius] | Melting temperature (Tm) shift (FES Catalytic Domain) [degrees Celcius] | Melting temperature (Tm) shift (CHK2 Catalytic Domain) [degrees Celcius] | Melting temperature (Tm) shift [2] [degrees Celcius] | Melting temperature (Tm) shift (SRC Catalytic Domain) [degrees Celcius] | Melting temperature (Tm) shift (PAK4 Catalytic Domain) [degrees Celcius] | Melting temperature (Tm) shift (DMPK Catalytic Domain) [degrees Celcius] | Melting temperature (Tm) shift (PAK7 Catalytic Domain) [degrees Celcius] | Melting temperature (Tm) shift [3] [degrees Celcius] | Melting temperature (Tm) shift (AKT3 Catalytic Domain) [degrees Celcius] | Melting temperature (Tm) shift (STK3 Catalytic Domain) [degrees Celcius] |
| --- | --- | --- | --- | --- | --- | --- | --- | --- | --- | --- | --- | --- | --- | --- | --- |
| O=C1NC(=O)C(c2c[nH]c3ccccc23)=C1c1c[nH]c2ccccc12 [Bisindolylmaleimide IV] | 2.0 | 0.9 | 0.9 | 0.1 | 0.7 | 0.5 | 4.1 | 0.0 | 0.3 | 0.4 | 2.7 | 0.1 | 0.0 | 0.0 | 0.9 |
| O=C1Cc2c([nH]c3ccc([N+](=O)[O-])cc23)-c2ccccc2N1 [Alsterpaullone] | 0.7 | 0.4 | 0.1 | 0.4 | 0.2 | 0.3 | 0.9 | 0.2 | 0.0 | 0.2 | 1.8 | 0.3 | 0.3 | 0.1 | 0.3 |
| O=C1Nc2ccc3ncsc3c2/C1=C/c1cnc[nH]1 [PKR Inhibitor] | 7.0 | 4.4 | 0.7 | 1.1 | 4.3 | 3.2 | 4.0 | 0.3 | 0.7 | 1.9 | 0.8 | 1.9 | 1.8 | 0.3 | 4.9 |

Next, values leading:

| Melting temperature (Tm) shift [1] [degrees Celcius] | Melting temperature (Tm) shift (CDK2 + Cyclin A) [degrees Celcius] | Melting temperature (Tm) shift (FES Catalytic Domain+SH2) [degrees Celcius] | Melting temperature (Tm) shift (FAK2 Catalytic Domain) [degrees Celcius] | Melting temperature (Tm) shift (CDK2 + Cyclin E) [degrees Celcius] | Melting temperature (Tm) shift (FES Catalytic Domain) [degrees Celcius] | Melting temperature (Tm) shift (CHK2 Catalytic Domain) [degrees Celcius] | Melting temperature (Tm) shift [2] [degrees Celcius] | Melting temperature (Tm) shift (SRC Catalytic Domain) [degrees Celcius] | Melting temperature (Tm) shift (PAK4 Catalytic Domain) [degrees Celcius] | Melting temperature (Tm) shift (DMPK Catalytic Domain) [degrees Celcius] | Melting temperature (Tm) shift (PAK7 Catalytic Domain) [degrees Celcius] | Melting temperature (Tm) shift [3] [degrees Celcius] | Melting temperature (Tm) shift (AKT3 Catalytic Domain) [degrees Celcius] | Melting temperature (Tm) shift (STK3 Catalytic Domain) [degrees Celcius] | Molecule |
| --- | --- | --- | --- | --- | --- | --- | --- | --- | --- | --- | --- | --- | --- | --- | --- |
| 4.2 | 4.2 | 1.4 | 1.6 | 0.7 | 3.1 | 2.5 | 0.9 | 0.7 | 3.0 | 3.1 | 1.8 | 2.1 | 1.3 | 2.7 | Cc1ccc([N+](=O)[O-])cc1S(=O)(=O)N(C)N=Cc1cnc2ccc(Br)cn12.Cl.O.O [PI 3-Kα Inhibitor VIII] |
| 2.0 | 0.7 | 0.4 | 0.4 | 0.4 | 2.0 | 5.2 | 0.2 | 0.1 | 1.7 | 0.9 | 0.9 | 2.2 | 0.0 | 2.0 | Cn1cc(/C=C2\C(=O)Nc3ccc(S(N)(=O)=O)cc32)c2ccccc21 [Syk Inhibitor] |
| 0.5 | 0.0 | 0.3 | 0.3 | 0.2 | 0.1 | 0.2 | 0.0 | 0.2 | 0.4 | 0.6 | 0.0 | 0.5 | 0.1 | 0.0 | DNA-PK Inhibitor V |
